IC50 data for 34 molecules are collected here from patent US10590078B2, “Sodium channel blockers” (Daewoong Pharmaceutical Co., Ltd., priority 2015, dated 2020).

Like-named read-outs stand apart in the source and are kept apart here.

For the experiment, the target named is human sodium ion channel 1.7 (hNav1.7) (Homo sapiens, UniProt Q15858). The experiment in a line: Blocking effect against sodium ion channel Nav1.7, IonFlux16 auto patch clamp in hNav1.7 HEK293 cells. Format: cell-based.
The mark [1] stands for this setting: hNav1.7 HEK293 cells, inhibition of peak current after 50 seconds treatment, eight concentrations, read-out: IC50.

Sequence of human sodium ion channel 1.7 (hNav1.7) (Q15858 whole entry): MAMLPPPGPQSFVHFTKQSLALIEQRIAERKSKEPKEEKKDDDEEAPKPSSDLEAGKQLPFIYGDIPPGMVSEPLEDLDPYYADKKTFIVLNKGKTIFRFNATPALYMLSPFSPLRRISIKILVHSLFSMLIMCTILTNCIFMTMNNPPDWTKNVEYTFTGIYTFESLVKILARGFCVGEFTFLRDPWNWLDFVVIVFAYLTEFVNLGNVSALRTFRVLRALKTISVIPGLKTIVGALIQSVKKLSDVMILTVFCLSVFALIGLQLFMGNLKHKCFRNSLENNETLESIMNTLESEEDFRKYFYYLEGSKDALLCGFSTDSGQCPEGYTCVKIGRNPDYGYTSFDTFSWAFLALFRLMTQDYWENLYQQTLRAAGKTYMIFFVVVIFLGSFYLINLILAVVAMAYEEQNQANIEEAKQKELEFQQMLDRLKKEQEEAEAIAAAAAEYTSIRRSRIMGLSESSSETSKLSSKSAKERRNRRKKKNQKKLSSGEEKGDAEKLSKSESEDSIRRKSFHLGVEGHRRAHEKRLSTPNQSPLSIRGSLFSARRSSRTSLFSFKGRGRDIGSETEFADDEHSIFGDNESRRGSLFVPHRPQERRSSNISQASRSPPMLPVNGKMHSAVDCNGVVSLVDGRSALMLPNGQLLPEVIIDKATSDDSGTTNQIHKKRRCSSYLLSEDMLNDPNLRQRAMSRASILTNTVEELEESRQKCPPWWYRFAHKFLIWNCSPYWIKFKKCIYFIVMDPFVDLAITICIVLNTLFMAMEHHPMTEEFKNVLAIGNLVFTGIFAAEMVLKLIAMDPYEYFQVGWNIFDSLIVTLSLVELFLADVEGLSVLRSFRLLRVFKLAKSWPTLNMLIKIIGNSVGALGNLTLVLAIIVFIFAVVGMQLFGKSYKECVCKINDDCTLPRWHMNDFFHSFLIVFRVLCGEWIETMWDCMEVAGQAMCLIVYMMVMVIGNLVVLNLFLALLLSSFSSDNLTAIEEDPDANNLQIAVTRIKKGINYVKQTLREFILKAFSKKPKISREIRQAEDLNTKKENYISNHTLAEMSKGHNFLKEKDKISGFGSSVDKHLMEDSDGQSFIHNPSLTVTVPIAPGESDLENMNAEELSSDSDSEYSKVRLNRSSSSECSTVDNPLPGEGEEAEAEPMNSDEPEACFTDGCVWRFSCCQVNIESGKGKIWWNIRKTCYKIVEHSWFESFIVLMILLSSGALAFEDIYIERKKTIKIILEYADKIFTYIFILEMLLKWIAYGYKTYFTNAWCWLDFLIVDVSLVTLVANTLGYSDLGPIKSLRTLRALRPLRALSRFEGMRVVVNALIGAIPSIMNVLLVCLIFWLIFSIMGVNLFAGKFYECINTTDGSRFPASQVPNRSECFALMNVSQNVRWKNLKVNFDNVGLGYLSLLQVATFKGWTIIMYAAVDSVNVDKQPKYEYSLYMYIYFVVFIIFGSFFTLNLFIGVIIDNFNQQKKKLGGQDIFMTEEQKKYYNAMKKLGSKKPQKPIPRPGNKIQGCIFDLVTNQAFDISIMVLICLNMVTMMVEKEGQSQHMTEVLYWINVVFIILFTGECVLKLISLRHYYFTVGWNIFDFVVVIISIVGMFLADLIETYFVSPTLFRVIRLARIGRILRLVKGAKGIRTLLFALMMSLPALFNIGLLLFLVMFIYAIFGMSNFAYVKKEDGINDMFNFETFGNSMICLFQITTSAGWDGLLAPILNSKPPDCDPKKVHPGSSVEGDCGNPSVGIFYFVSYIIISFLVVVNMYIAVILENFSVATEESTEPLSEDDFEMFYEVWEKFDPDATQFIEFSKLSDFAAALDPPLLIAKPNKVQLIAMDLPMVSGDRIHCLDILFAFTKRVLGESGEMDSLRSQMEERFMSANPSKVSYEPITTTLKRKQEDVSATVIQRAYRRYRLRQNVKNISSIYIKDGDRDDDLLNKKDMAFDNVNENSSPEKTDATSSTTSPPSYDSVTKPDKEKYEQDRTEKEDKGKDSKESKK

As for `CS(=O)(=O)NC(=O)c1cc(Cl)c(-n2nc(-c3ccc(F)cc3Cl)c3cc(Cl)ccc32)cc1F` [Example 74, 5-chloro-4-(5-chloro-3-(2-chloro-4-fluorophenyl)-1H-indazol-1-yl)-2-fluoro-N-(methylsulfonyl)benzamide], under setting [1], the IC50 was 20 nM.

Turning to `CS(=O)(=O)NC(=O)c1cc(Cl)c(-n2nc(-c3ccc(F)c(F)c3)c3cc(Cl)ccc32)cc1F` [Example 75, 5-chloro-4-(5-chloro-3-(3,4-difluorophenyl)-1H-indazol-1-yl)-2-fluoro-N-(methylsulfonyl)benzamide], the IC50 under setting [1] amounted to 180 nM.

Take `CS(=O)(=O)NC(=O)c1cc(Cl)c(-n2nc(-c3cc(F)ccc3F)c3cc(Cl)ccc32)cc1F` [Example 76, 5-chloro-4-(5-chloro-3-(2,5-difluorophenyl)-1H-indazol-1-yl)-2-fluoro-N-(methylsulfonyl)benzamide]: the IC50 was determined as 90 nM.

In turn, `CS(=O)(=O)NC(=O)c1cc(Cl)c(-n2nc(-c3cc(F)c(F)c(F)c3)c3cc(Cl)ccc32)cc1F` [Example 77, 5-chloro-4-(5-chloro-3-(3,4,5-trifluorophenyl)-1H-indazol-1-yl)-2-fluoro-N-(methylsulfonyl)benzamide] showed a half-maximal inhibitory concentration (IC50) of 20 nM.

As to `CS(=O)(=O)NC(=O)c1cc(Cl)c(-n2nc(-c3c(F)cccc3Cl)c3cc(Cl)ccc32)cc1F` [Example 78, 5-chloro-4-(5-chloro-3-(2-chloro-6-fluorophenyl)-1H-indazol-1-yl)-2-fluoro-N-(methylsulfonyl)benzamide], the IC50 under setting [1] worked out at 130 nM.

In the case of `CS(=O)(=O)NC(=O)c1cc(Cl)c(-n2nc(-c3cccc(Cl)c3F)c3cc(Cl)ccc32)cc1F` [Example 79, 5-chloro-4-(5-chloro-3-(3-chloro-2-fluorophenyl)-1H-indazol-1-yl)-2-fluoro-N-(methylsulfonyl)benzamide], the half-maximal inhibitory concentration (IC50) was found to be 70 nM.

As to `CS(=O)(=O)NC(=O)c1cc(Cl)c(-n2nc(-c3ccc(Cl)c(F)c3)c3cc(Cl)ccc32)cc1F` [Example 80, 5-chloro-4-(5-chloro-3-(4-chloro-3-fluorophenyl)-1H-indazol-1-yl)-2-fluoro-N-(methylsulfonyl)benzamide], the IC50 under setting [1] was 80 nM.

As to `CS(=O)(=O)NC(=O)c1cc(Cl)c(-n2nc(-c3ccc([N+](=O)[O-])cc3)c3cc(Cl)ccc32)cc1F` [Example 81, 5-chloro-4-(5-chloro-3-(4-nitrophenyl)-1H-indazol-1-yl)-2-fluoro-N-(methylsulfonyl)benzamide], the IC50 under setting [1] came out at 240 nM.

With `CS(=O)(=O)NC(=O)c1cc(Cl)c(-n2nc(-c3ccc(N)cc3)c3cc(Cl)ccc32)cc1F` [Example 82, 4-(3-(4-aminophenyl)-5-chloro-1H-indazol-1-yl)-5-chloro-2-fluoro-N-(methylsulfonyl)benzamide], under setting [1], the IC50 was 7910 nM.

Turning to `CS(=O)(=O)NC(=O)c1cc(Cl)c(-n2nc(-c3ccc(OC(F)(F)F)cc3)c3cc(Cl)ccc32)cc1F` [Example 83, 5-chloro-4-(5-chloro-3-(4-(trifluoromethoxy)phenyl)-1H-indazol-1-yl)-2-fluoro-N-(methylsulfonyl)benzamide], the IC50 under setting [1] came to 80 nM.

Regarding `CC(C)Cc1ccc2c(c1)c(-c1ccccc1)nn2-c1cc(F)c(C(=O)NS(C)(=O)=O)cc1Cl` [Example 84, 5-chloro-2-fluoro-4-(5-isobutyl-3-phenyl-1H-indazol-1-yl)-N-(methylsulfonyl)benzamide], the 50% inhibitory concentration (IC50) under setting [1] was 110 nM.

As for `CS(=O)(=O)NC(=O)c1cc(Cl)c(-n2nc(-c3ccc(Cl)cc3)c3cc(C4CC4)ccc32)cc1F` [Example 85, 5-chloro-4-(3-(4-chlorophenyl)-5-cyclopropyl-1H-indazol-1-yl)-2-fluoro-N-(methylsulfonyl)benzamide], under setting [1], the IC50 turned out to be 600 nM.

Regarding `CS(=O)(=O)NC(=O)c1cc(Cl)c(-n2nc(N3CCOCC3)c3cc(Cl)ccc32)cc1F` [Example 86, 5-chloro-4-(5-chloro-3-morpholino-1H-indazol-1-yl)-2-fluoro-N-(methylsulfonyl)benzamide], the IC50 under setting [1] was above 10000 nM.

In the case of `Cn1nccc1-c1nn(-c2cc(F)c(C(=O)NS(C)(=O)=O)cc2Cl)c2ccc(Cl)cc12` [Example 87, 5-chloro-4-(5-chloro-3-(1-methyl-1H-pyrazol-5-yl)-1H-indazol-1-yl)-2-fluoro-N-(methylsulfonyl)benzamide], the half-inhibitory concentration (IC50) under setting [1] was above 3000 nM.

`Cn1cc(-c2nn(-c3cc(F)c(C(=O)NS(C)(=O)=O)cc3Cl)c3ccc(Cl)cc23)cn1` [Example 88, 5-chloro-4-(5-chloro-3-(1-methyl-1H-pyrazol-4-yl)-1H-indazol-1-yl)-2-fluoro-N-(methylsulfonyl)benzamide]: the half-maximal inhibitory concentration (IC50) under setting [1] is above 10000 nM.

Take `CS(=O)(=O)NC(=O)c1cc(Cl)c(-n2nc(-c3cn[nH]c3)c3cc(Cl)ccc32)cc1F` [Example 89, 5-chloro-4-(5-chloro-3-(1H-pyrazol-4-yl)-1H-indazol-1-yl)-2-fluoro-N-(methylsulfonyl)benzamide]: under setting [1], the IC50 is above 10000 nM.

With `CS(=O)(=O)NC(=O)c1cc(Cl)c(-n2nc(-c3cc[nH]n3)c3cc(Cl)ccc32)cc1F` [Example 90, 5-chloro-4-(5-chloro-3-(1H-pyrazol-3-yl)-1H-indazol-1-yl)-2-fluoro-N-(methylsulfonyl)benzamide], the IC50 under setting [1] turned out to be 11200 nM.

As for `Cc1ncc(-c2nn(-c3cc(F)c(C(=O)NS(C)(=O)=O)cc3Cl)c3ccc(Cl)cc23)s1` [Example 91, 5-chloro-4-(5-chloro-3-(2-methylthiazol-5-yl)-1H-indazol-1-yl)-2-fluoro-N-(methylsulfonyl)benzamide], the IC50 under setting [1] was 1930 nM.

Consider `COc1ccccc1-c1nn(-c2ccc(C(=O)NS(C)(=O)=O)cc2C#N)c2ccc(Cl)cc12` [Example 92, 4-(5-chloro-3-(2-methoxyphenyl)-1H-indazol-1-yl)-3-cyano-N-(methylsulfonyl)benzamide], for which, under setting [1], the half-inhibitory concentration (IC50) was 5290 nM.

As to `COc1ccc(-c2nn(-c3ccc(C(=O)NS(C)(=O)=O)cc3C#N)c3ccc(Cl)cc23)cc1` [Example 93, 4-(5-chloro-3-(4-methoxyphenyl)-1H-indazol-1-yl)-3-cyano-N-(methylsulfonyl)benzamide], under setting [1], the IC50 was 226 nM.

On to `CS(=O)(=O)NC(=O)c1ccc(-n2nc(-c3ccccc3C#N)c3cc(Cl)ccc32)c(C#N)c1` [Example 94, 4-(5-chloro-3-(2-cyanophenyl)-1H-indazol-1-yl)-3-cyano-N-(methylsulfonyl)benzamide], for which the IC50 under setting [1] was above 10000 nM.

As to `CS(=O)(=O)NC(=O)c1ccc(-n2nc(-c3cccc(C#N)c3)c3cc(Cl)ccc32)c(C#N)c1` [Example 95, 4-(5-chloro-3-(3-cyanophenyl)-1H-indazol-1-yl)-3-cyano-N-(methylsulfonyl)benzamide], under setting [1], the IC50 was above 10000 nM.

For `CS(=O)(=O)NC(=O)c1ccc(-n2nc(-c3ccc(C#N)cc3)c3cc(Cl)ccc32)c(C#N)c1` [Example 96, 4-(5-chloro-3-(4-cyanophenyl)-1H-indazol-1-yl)-3-cyano-N-(methylsulfonyl)benzamide], under setting [1], the IC50 is above 10000 nM.

Regarding `CS(=O)(=O)NC(=O)c1ccc(-n2nc(-c3ccccc3C(F)(F)F)c3cc(Cl)ccc32)c(C#N)c1` [Example 97, 4-(5-chloro-3-(2-(trifluoromethyl)phenyl)-1H-indazol-1-yl)-3-cyano-N-(methylsulfonyl)benzamide], under setting [1], the IC50 is 170 nM.

In the case of `CS(=O)(=O)NC(=O)c1ccc(-n2nc(-c3cccc(C(F)(F)F)c3)c3cc(Cl)ccc32)c(C#N)c1` [Example 98, 4-(5-chloro-3-(3-(trifluoromethyl)phenyl)-1H-indazol-1-yl)-3-cyano-N-(methylsulfonyl)benzamide], the concentration for half-maximal inhibition (IC50) under setting [1] turned out to be 887 nM.

For the molecule `CS(=O)(=O)NC(=O)c1ccc(-n2nc(-c3ccc(C(F)(F)F)cc3)c3cc(Cl)ccc32)c(C#N)c1` [Example 99, 4-(5-chloro-3-(4-(trifluoromethyl)phenyl)-1H-indazol-1-yl)-3-cyano-N-(methylsulfonyl)benzamide], the IC50 under setting [1] stood at 1340 nM.

As for `CS(=O)(=O)NC(=O)c1ccc(-n2nc(-c3ccc(Cl)cc3F)c3cc(Cl)ccc32)c(C#N)c1` [Example 100, 4-(5-chloro-3-(4-chloro-2-fluorophenyl)-1H-indazol-1-yl)-3-cyano-N-(methylsulfonyl)benzamide], the half-maximal inhibitory concentration (IC50) under setting [1] was determined as 279 nM.

`CS(=O)(=O)NC(=O)c1ccc(-n2nc(-c3ccc(F)cc3)c3cc(Cl)ccc32)c(C#N)c1` [Example 101, 4-(5-chloro-3-(4-fluorophenyl)-1H-indazol-1-yl)-3-cyano-N-(methylsulfonyl)benzamide]: the half-maximal inhibitory concentration (IC50) under setting [1] was determined as 3020 nM.

Regarding `CS(=O)(=O)NC(=O)c1ccc(-n2nc(-c3ccccc3F)c3cc(Cl)ccc32)c(C#N)c1` [Example 102, 4-(5-chloro-3-(2-fluorophenyl)-1H-indazol-1-yl)-3-cyano-N-(methylsulfonyl)benzamide], the IC50 under setting [1] stood at 1210 nM.

In the case of `CS(=O)(=O)NC(=O)c1ccc(-n2nc(-c3cccc(F)c3)c3cc(Cl)ccc32)c(C#N)c1` [Example 103, 4-(5-chloro-3-(3-fluorophenyl)-1H-indazol-1-yl)-3-cyano-N-(methylsulfonyl)benzamide], the concentration for half-maximal inhibition (IC50) under setting [1] amounted to 2170 nM.

In the case of `CS(=O)(=O)NC(=O)c1ccc(-n2nc(-c3cncc(Cl)c3)c3cc(Cl)ccc32)c(C#N)c1` [Example 104, 4-(5-chloro-3-(5-chloropyridin-3-yl)-1H-indazol-1-yl)-3-cyano-N-(methylsulfonyl)benzamide], the IC50 under setting [1] was above 10000 nM.

Take `CS(=O)(=O)NC(=O)c1ccc(-n2nc(-c3ccc(F)cc3F)c3cc(Cl)ccc32)c(C#N)c1` [Example 105, 4-(5-chloro-3-(2,4-difluorophenyl)-1H-indazol-1-yl)-3-cyano-N-(methylsulfonyl)benzamide]: under setting [1], the IC50 stood at 957 nM.

As for `COc1ncccc1-c1nn(-c2ccc(C(=O)NS(C)(=O)=O)cc2C#N)c2ccc(Cl)cc12` [Example 106, 4-(5-chloro-3-(2-methoxypyridin-3-yl)-1H-indazol-1-yl)-3-cyano-N-(methylsulfonyl)benzamide], the IC50 under setting [1] turned out to be 6020 nM.

As for `COc1ccccc1-c1nn(-c2cc(Cl)c(C(=O)NS(C)(=O)=O)cc2F)c2ccc(Cl)cc12` [Example 107, 2-chloro-4-(5-chloro-3-(2-methoxyphenyl)-1H-indazol-1-yl)-5-fluoro-N-(methylsulfonyl)benzamide], the IC50 under setting [1] amounted to 811 nM.
